Test results from patent US7413903B2, “Methods of regulating differentiation in stem cells” (ES Cell International PTE Ltd., priority 2002, dated 2008).

Legend:
hES cells [1] = assay: Direct observation of hES cell colonies in serum-free medium (spontaneous differentiation); format: cell-based, human; settings: for colony morphology / spontaneous differentiation vs control: Example 1, PDGF 20 ng/ml; for colony morphology / spontaneous differentiation vs control / colony size, morphology / spontaneous differentiation vs controls: on MEF, serum-free; for colony morphology / spontaneous differentiation vs control / colony size, morphology / spontaneous differentiation vs controls / colony growth / differentiation vs control: LPA up to 50 μM; for colony size, morphology / spontaneous differentiation vs controls: Example 2, 2 weeks, PDGF-AB 20 ng/ml; for colony growth / differentiation vs control: 12 days
Method: (§1) hES-3 cells were cultured as previously described^1. The serum-free culture medium consisted of DMEM (without sodium pyruvate, glucose 4500 mg/l, Invitrogen, Mount Waverley, VIC, Australia) supplemented with insulin/transferrin/selenium 1%, β-mercaptoethanol 0.1 mM, NEAA 1%, glutamine 2 mM, Hepes 25 mM, penicillin 50 U/ml and streptomycin […] (all from Invitrogen). Medium was changed every 2 days and cells were passaged every week. S1P and dihydro-S1P were obtained from Biomol (Plymouth Meeting, Pa., USA) and were dissolved in methanol. LPA was obtained from Sigma (Castle Hill, NSW, Australia) and was dissolved in ethanol. Extemporaneous dilutions of all lipids were made in water containing 0.1% fatty acid-free bovine serum albumin (BSA) (Sigma). Human PDGF-AB, PDGF-AA, PDGF-BB were from PreproTech Inc. (Rocky Hill, N.J., USA). RT-PCR Experiments.
as §1, with “Media” for “Medium”, “USA).” for “USA) and were dissolved in methanol.”, “Australia).” for “Australia) and was dissolved in ethanol.”, “(Sigma). S1P and dihydro-S1P were used at […].” for “(Sigma).”, “USA) and were used at 20 ng/ml.” for “USA). RT-PCR Experiments.”
For direct observation, hES-3 cells were coated into 12-well plates (3 colonies per well), with or without mouse embryonic feeders (MEFs). The day following the plating, cells were incubated with the different agents in serum free medium containing insulin, transferring and selenium. Media was changed the 2nd day and then every 2 days.

hES cells [2] = assay: GCTM-2 quantification (alkaline phosphatase-coupled secondary antibody, OD 405 nm); format: cell-based, human; settings: for more GCMT2+ than the control cells / GCTM2 levels, PDGF isoform added with S1P: Example 1; for more GCMT2+ than the control cells: on MEF, 8 days, S1P 10 μM; for more GCMT2+ than the control cells / more GCMT2+ than the controls: serum-free; for more GCMT2+ than the controls: treated for 2 weeks; for effect of inhibitor on the effect of PDGF and S1P on GCTM2 expression: 7 days, U0126, DMS 3 μM
Text: hES-3 cells plated with MEF, were fixed in ethanol and immunostained with GCTM-2 and then with an alkaline phosphatase-coupled secondary antibody (Dako). The activity of alkaline phosphatase was detected by adding a solution of 4-nitrophenyl phosphate (Roche, Mannheim, Germany), followed by reading the optical density (OD) at 405 nm. In order to validate the technique as a relevant indicator of the proportion of GCTM-2 positive cells, standard curves were done with the teratocarcinoma cell line GCT27C4, known to express GCTM-2.
Cells were fixed in 100% ethanol and immunostained with GCTM-2 followed by alkaline phosphatase-coupled secondary antibodies (Dako). Alkaline phosphatase activity was detected by adding a solution of 4-nitrophenyl phosphate (Roche), and the concentration of the reaction product was determined by reading the optical density (OD) at 405 nm. In order to validate the technique as an accurate indicator of the proportion of GCTM-2 positive cells, standard curves were carried out with the embryonal carcinoma cell line GCT27C4, known to express GCTM-2 ^20.

ERK1/2 (Erk1 and Erk2) = assay: ERKs phosphorylation in hES cells (Western blot, anti-active MAP kinase); format: cell-based, human; settings: for phosphorylation of ERKs in hES cells: 5 min incubation, LPA, PDGF 20 ng/ml, serum-depleted, without MEF
Method: hES-3 cells plated without MEF for 24 hrs were depleted of serum for a further 18 hrs. Cells pre-treated or not with U0126 (Sigma, 30 μM, 1 hr), were incubated in the presence of the different agents for 5 min and were lysed by removal of the supernatants and addition of a reducing loading buffer containing 1 mM sodium orthovanadate (Sigma). Protein lysates (approx. 80 μg) were separated by SDS-polyacrylamide gel electrophoresis (10% polyacrylamide, w/v), transferred to nitrocellulose (Hybond-nitrocellulose, Amersham) and immunoblotting was carried out using rabbit polyclonal anti-active mitogen-activated protein (MAPK) antibodies raised against a dually phosphorylated MAPK peptide (Promega, Madison, Wis., USA). Peroxidase-coupled secondary antibody (Dako) was detected by exposure of autoradiographic films in the presence of a chemiluminescent detection reagent (ECL, Amersham). Stripping of antibodies was achieved and membranes were then reprobed with rabbit polyclonal anti-ERK1/2 antibodies (Promega), and then with peroxidase-coupled secondary antibodies (Dako). Membranes probed with either rabbit polyclonal anti-active p38 (Promega) or rabbit polyclonal anti-active JNK (Promega) antibodies were also performed, using the same procedure as described
For immunoblot analysis, cells were transferred into 24 well plates (8 colonies per well) without MEFs, and 24 hr later, were grown in the absence of serum for 18 hrs.
In some experiments, cells were pre-treated for 1 hr with U0126 (30 μM) or for 18 hrs with PTX (100 μg/ml).
hES3 cells were lysed following removal of the supernatants by addition of a reducing loading buffer (2% SDS, 62.5 mM Tris pH 6.8, 0.1 M DTT, 0.01% bromophenol blue) containing 1 mM sodium orthovanadate. Samples were boiled for 10 min and centrifuged at 13000 g for 15 min, and protein lysates (approx. 80 μg) were separated by SDS-polyacrylamide gel electrophoresis (10% polyacrylamide, w/v). Proteins were transferred to nitrocellulose (Hybond-ECL, Amersham) and immunoblotting was carried out with rabbit polyclonal anti-active mitogen-activated protein (MAPK) antibodies raised against a dually phosphorylated MAPK peptide (Promega, Madison, Wis., USA). Peroxidase-coupled secondary antibody (Dako) was detected by exposure of autoradiographic films in the presence of a chemiluminescent detection reagent (ECL, Amersham). Stripping of antibodies was achieved by incubating the membrane during 30 min at 50° C. in a buffer containing 100 mM mercaptoethanol, 2% SDS, 62.5 mM Tris-HCl pH 6.7. The membrane was then reprobing with rabbit polyclonal anti-ERK1/2 antibodies (Promega), and then with peroxidase-coupled secondary antibodies (Dako).

hES cells [3] = assay: GCTM-2 / PCNA double immunostaining and cell counting of mechanically dissociated hES cells; format: cell-based, human; settings: for percentage of cells GCTM2+: mechanically dissociated, PDGF 10 ng/ml
Method: In some experiments, hES-3 cells plated onto 8-well chamber slides, with or without MEF, were fixed in ethanol or paraformaldehyde (for PDGFR) the day after plating. In others, hES-3 cells were mechanically dissociated, in order to obtain a monolayer culture and then plated onto 8-well chamber slides without MEF and were fixed in ethanol 4 days after the first treatment. Immunostaining was performed using the following antibodies: anti human PDGFR-α or PDGFR-β(R&D Systems Inc.), GCTM-2, and/or PCNA (Chemicon, Boronia, VIC, Australia), TRA-1-60, Oct-4. Nuclei were evidenced by Hoechst-33342. Slides were mounted and observed by fluorescent microscopy with a Leica microscope at X10, X20 and X40. Specificity was verified by the absence of any staining in the negative controls. In some experiments, cells were counted to determine the ratio of cells within the global population.
For immunostaining, hES-3 cells were coated on chamber slides after mechanical dissociation, in order to obtain a monolayer culture. The day following the plating, cells were incubated with the different agents in a media depleted in serum. Media was changed the 2nd day and the cells were fixed 4 days after the first treatment.
Cells were washed in PBS, fixed with MeOH, and immunostaining was performed, using the specific stem cell marker antibody GCTM-2, and the specific cell proliferation marker PCNA. Cells were then washed and the nucleuses were stained with Hoechst-33342 (1 μg/ml). Slides were mounted and then observed by fluorescent microscopy. Cells were then counted in order to determine the ratio of proliferating stem cells within the overall population.

[4] = test system: SPK activity in hES cells; assay: Sphingosine kinase activity in hES cells after incubation with PDGF; format: cell-based, human; settings: PDGF 20 ng/ml
Method: hES-3 cells plated without MEF for 24 hr and depleted of serum for a further 18 hr were incubated in the presence of PDGF (20 ng/ml) for various time periods and were harvested and lysed by sonication (2 W for 30 s at 4° C.) in lysis buffer containing 50 mM Tris/HCl (pH 7.4), 10% glycerol, 0.05% Triton X-100, 150 mM NaCl, 1 mM dithiothreitol, 2 mM Na3VO4, 10 mM NaF, 1 mM EDTA and protease inhibitors (Complete™, Roche, Mannheim, Germany). SPK activity was determined using D-erythro-sphingosine and […] as substrates, as previously described^19. Protein concentrations in cell homogenates were determined with Coomassie Brilliant Blue reagent (Bio-Rad, Regent Park, NSW, Australia) using bovine serum albumin as standard.

SPK in MEF = assay: Sphingosine kinase activity in MEF after incubation with PDGF; format: cell-based, mouse; settings: PDGF 20 ng/ml
[5] = Example 4, on MEFs, serum-depleted, S1P 10 μM
[6] = Example 1, 4 days, no MEF, no serum, S1P 10 μM
[7] = Example 1, 4 days, no MEF, no serum

Compound: CCCCCCCCCCCCC/C=C/[C@@H](O)[C@@H](N)COP(=O)(O)O [S1P, sphingosine-1-phosphate]
- colony morphology / spontaneous differentiation vs control (hES cells [1]; 8 days, S1P 10 μM): the colonies appeared flatter and less differentiated
- colony size, morphology / spontaneous differentiation vs controls (hES cells [1]; S1P 10 μM): the colonies appeared flatter and less differentiated
- colony morphology / differentiation vs control condition (hES cells [1]; Example 4, on MEFs, serum-depleted, 8 days, S1P 10 μM): the colonies were more compact and less differentiated
- colony growth / differentiation vs control (hES cells [1]; [5]): more obvious after 12 days of treatment
- effect on cell differentiation, hES cells grown without MEFs (hES cells [1]; Example 4): inhibitory effect
- more GCMT2+ than the control cells (hES cells [2]; PDGF 20 ng/ml): 16.6±4.1%
- more GCMT2+ than the controls (hES cells [2]; Example 2): 18.0±17.0%
- concentration dependence of ERKs stimulation (ERK1/2 (Erk1 and Erk2); 5 min, various concentrations of S1P): in a concentration dependant manner
- phosphorylation of ERKs in hES cells (ERK1/2 (Erk1 and Erk2); S1P 10 μM): stimulated the phosphorylation of ERKs
- duration of ERKs stimulation (ERK1/2 (Erk1 and Erk2); S1P 10 μM): at least 60 min
- percentage of cells GCTM2+ (hES cells [3]; [6]): 47.9±3.8%
- proliferating rate of hES cells (PCNA) vs control (hES cells [3]; [7]): no statistically significant difference
- proliferating rate of hES cells (PCNA) vs control (hES cells [3]; Example 4, 4 days without serum, S1P 10 μM): no marked difference
- cells GCTM-2 positive (hES cells [3]; Example 4, 4 days without serum, S1P 10 μM (control 16%)): 68%

Compound: CCCCCCCCCCCCCCC[C@@H](O)[C@@H](N)COP(=O)(O)O [dihydro-S1P, dihydrosphingosine-1-phosphate]
- GCTM2 expression (hES cells [2]; Example 2, 2 weeks, dihydro-S1P, PDGF 20 ng/ml): 223.0±27.0 % of control

Compound: N#CC(=C(/N)Sc1ccccc1N)/C(C#N)=C(\N)Sc1ccccc1N [U0126]
- effect of inhibitor on the effect of PDGF and S1P on GCTM2 expression (hES cells [2]): totally inhibited
- effect of MEK inhibitor on agonist-stimulated phosphorylation of ERKs (ERK1/2 (Erk1 and Erk2); U0126 30 μM, 1 hr pre-treatment): totally inhibited

Compound: PDGF-AA: Human platelet-derived growth factor isoform AA; only binds to PDGFR-a
- GCTM2 levels, PDGF isoform added with S1P (hES cells [2]): 120.5±4.5 % of control
- GCTM2 expression, PDGF isoform with S1P (hES cells [2]; Example 2, 2 weeks, isoform 20 ng/ml together with S1P): 220.3±49.0 % of control

Compound: lysophosphatidic acid [LPA]
- colony morphology / spontaneous differentiation vs control (hES cells [1]; 8 days, S1P 10 μM): did not have an obvious effect on growth of the colonies
- colony size, morphology / spontaneous differentiation vs controls (hES cells [1]; S1P 10 μM): no obvious effect on size or morphology of hES cell colonies
- colony growth / differentiation vs control (hES cells [1]; [5]): did not seem to affect the growth of the colonies
- effect on cell differentiation, hES cells grown without MEFs (hES cells [1]; Example 4): lack of effect
- phosphorylation of ERKs in hES cells (ERK1/2 (Erk1 and Erk2); S1P 10 μM): stimulated the phosphorylation of ERKs

Compound: PDGF: Human platelet-derived growth factor, isoform AB, from PreproTech; ligand of class III tyrosine kinase receptor
- colony morphology / spontaneous differentiation vs control (hES cells [1]; 8 days, S1P 10 μM): the colonies appeared flatter and less differentiated
- colony size, morphology / spontaneous differentiation vs controls (hES cells [1]; S1P 10 μM): the colonies appeared flatter and less differentiated
- duration of enhanced SPK activity [4]: at least 60 min
- SPK activity relative to basal values ([4]; after 30 min of incubation): 1.6 fold
- GCTM2 levels, PDGF isoform added with S1P (hES cells [2]): 125.7±9.7 % of control
- more GCMT2+ than the control cells (hES cells [2]; PDGF 20 ng/ml): 16.6±7.0%
- more GCMT2+ than the controls (hES cells [2]; Example 2): 50.3±18.4%
- phosphorylation of ERKs in hES cells (ERK1/2 (Erk1 and Erk2); S1P 10 μM): stimulated the phosphorylation of ERKs
- activation of SPK in MEF (SPK in MEF): did not induce a significant statistical activation of SPK
- percentage of cells GCTM2+ (hES cells [3]; [6]): 53.7±13.2%
- proliferating rate of hES cells (PCNA) vs control (hES cells [3]; [7]): no statistically significant difference

Compound: CCCCCCCCCCCCC/C=C/[C@@H](O)[C@H](CO)N(C)C [DMS, dimethylsphingosine]
- effect of inhibitor on the effect of PDGF and S1P on GCTM2 expression (hES cells [2]): inhibited the effect of PDGF and S1P
